Test results taken from patent US6781015B2, “Aminobenzophenones and photopolymerizable compositions including the same” (Albemarle Corporation, priority 1997, dated 2004).
Where “and” joins values, the source holds several entries; their conditions need not be identical. Equal entries are not always repeated.

Legend:
[1] = Most concentrated stock solution in acetone; assay type: physicochemical; settings: clear, light yellow solution
Description: (§1) The test article TMMK was stored at room temperature. Acetone (CAS# 67-64-1, Fisher Scientific Co., Lot 961140) was used as the vehicle. At 20 mg per ml, which was the most concentrated stock solution which could be prepared, the test article formed a clear, light yellow solution. The test article remained a solution in all succeeding dilutions prepared for the mutagenicity assay. The maximum aliquot of acetone which can be used in the test system is 200 μl. Thus, the maximum concentration which could be tested was 4,000 μg per plate. The test article and vehicle controls were plated using a 200 μl plating aliquot. Positive control articles were plated using 50 μl plating aliquot.

[2] = based on cancer studies in rats and mice; cited from earlier work
[3] = tested on: Salmonella typhimurium tester strain TA98; assay: Salmonella/Mammalian-Microsome Reverse Mutation Screening Assay (Ames Test); assay type: cell-based; parameters: key to Background lawn: 1 = normal; 2 = slightly reduced; 3 = moderately reduced; 4 = extremely reduced; 5 = absent; 6 = obscured by precipitate; sp = slight precipitate; mp = moderate precipitate (requires hand count); hp = heavy precipitate (requires hand count); settings: for Individual plate counts, revertants per plate: plates 1-3
Description: Mutagenicity can be measured by a variety of assays. The most commonly used method is the Salmonella/Mammalian-Microsome Reverse Mutation Screening Assay (Ames Test), which commonly uses four or five strains of Salmonella bacteria to detect different types of mutations.
TMMK, TEMK and MEAB were evaluated for the ability to induce reverse mutations at the histidine locus in the genome of a specific Salmonella typhimurium tester strain in the presence of an exogenous metabolic activation system of mammalian microsomal enzymes derived from Aroclor™-induced rat liver (S9). The tester strain used in the mutagenicity assay was Salmonella typhimurium tester strain TA98 with added activation. The assay was conducted using eight doses of the test article, along with the appropriate vehicle and positive controls in the presence of S9 mix (S9 homogenate was purchased from Molecular Toxicology, Inc., Annapolis, Md. 21401, Batch 0646, 43.4 mg of protein per ml). Positive controls were also plated in the absence of S9 mix. All doses of test article, vehicle, and positive controls were plated in triplicate.
as §1
(§2) The test article TEMK was stored at room temperature. Acetone (CAS# 67-64-1, Fisher Scientific Co., Lot 961140) was used as the vehicle. At 100 mg per ml, which was the most concentrated stock solution prepared, the test article formed a clear, yellow solution. The test article remained a solution in all succeeding dilutions prepared for the mutagenicity assay. The test article, vehicle controls and positive control articles were plated using a 50 μl plating aliquot.
as §2, with “MEAB” for “TEMK”, “(CAS#67-64-1,” for “(CAS# 67-64-1,”, “25” for “100”, “clear, light” for “clear,”, “article and” for “article,”, “were plated using a 200 μl plating aliquot. Positive” for “and positive”
The data are presented as individual plate counts along with a mean and standard deviation.

[4] = tested on: Salmonella typhimurium tester strain TA98; settings: strain TA98 with added mammalian metabolic activation, adequate concentrations of test material; cited from earlier work
[5] = TA98, rat liver S9, 3.33 μg/plate
[6] = TA98, rat liver S9, 10.0 μg/plate
[7] = TA98, rat liver S9, 33.3 μg/plate
[8] = TA98, rat liver S9, 100 μg/plate
[9] = TA98, rat liver S9, 333 μg/plate
[10] = TA98, rat liver S9, 1000 μg/plate
[11] = TA98, rat liver S9, 3330 μg/plate
[12] = TA98, rat liver S9, 4000 μg/plate
[13] = tester strain TA98 in the presence of S9 mix

## CN(C)c1ccc(C(=O)c2ccc(N(C)C)cc2)cc1 [TMMK, 4,4′-bis(dimethylamino)benzophenone]
[1]
  Most concentrated stock solution which could be prepared: 20 mg per ml
[2]
  National Toxicology Program carcinogen listing: reasonably anticipated to be a carcinogen
[3]; [5]
  Mean revertants per plate: 22 revertants per plate
  Individual plate counts, revertants per plate: 14 revertants per plate and 29 revertants per plate and 24 revertants per plate
[3]; [6]
  Mean revertants per plate: 16 revertants per plate
  Individual plate counts, revertants per plate: 9 revertants per plate and 19 revertants per plate (2×)
[3]; [7]
  Mean revertants per plate: 31 revertants per plate
  Individual plate counts, revertants per plate: 21 revertants per plate and 35 revertants per plate and 37 revertants per plate
[3]; [8]
  Mean revertants per plate: 17 revertants per plate
  Individual plate counts, revertants per plate: 16 revertants per plate and 12 revertants per plate and 22 revertants per plate
[3]; [9]
  Mean revertants per plate: 18 revertants per plate
  Individual plate counts, revertants per plate: 18 revertants per plate and 23 revertants per plate and 12 revertants per plate
[3]; [10]
  Mean revertants per plate: 31 revertants per plate
  Individual plate counts, revertants per plate: 35 revertants per plate and 26 revertants per plate and 33 revertants per plate
[3]; [11]
  Mean revertants per plate: 79 revertants per plate
  Individual plate counts, revertants per plate: 78 revertants per plate (2×) and 82 revertants per plate
[3]; [12]
  Mean revertants per plate: 81 revertants per plate
  Individual plate counts, revertants per plate: 80 revertants per plate and 70 revertants per plate and 93 revertants per plate
[3]; Table 1, TA98, rat liver S9, 3.33 μg/plate
  Background lawn: 1
[3]; Table 1, TA98, rat liver S9, 10.0 μg/plate
  Background lawn: 1
[3]; Table 1, TA98, rat liver S9, 33.3 μg/plate
  Background lawn: 1
[3]; Table 1, TA98, rat liver S9, 100 μg/plate
  Background lawn: 1 sp
[3]; Table 1, TA98, rat liver S9, 333 μg/plate
  Background lawn: 1 mp
[3]; Table 1, TA98, rat liver S9, 1000 μg/plate
  Background lawn: 1 mp
[3]; Table 1, TA98, rat liver S9, 3330 μg/plate
  Background lawn: 6 mp
[3]; Table 1, TA98, rat liver S9, 4000 μg/plate
  Background lawn: 6 mp
[3]; Table 2 summary, TA98, rat liver S9, 3.33 μg/plate
  Background lawn: 1
[3]; Table 2 summary, TA98, rat liver S9, 10.0 μg/plate
  Background lawn: 1
[3]; Table 2 summary, TA98, rat liver S9, 33.3 μg/plate
  Background lawn: 1
[3]; Table 2 summary, TA98, rat liver S9, 100 μg/plate
  Background lawn: 1 sp
[3]; Table 2 summary, TA98, rat liver S9, 333 μg/plate
  Background lawn: 1 mp
[3]; Table 2 summary, TA98, rat liver S9, 1000 μg/plate
  Background lawn: 1 mp
[3]; Table 2 summary, TA98, rat liver S9, 3330 μg/plate
  Background lawn: 6 mp
[3]; Table 2 summary, TA98, rat liver S9, 4000 μg/plate
  Background lawn: 6 mp
[3]; [13]
  Ames Test outcome (mutagenicity): mutagenic
  Increase in the number of revertants per plate: 3.9 fold
[4]
  Ames Test outcome in the literature: consistently found to have mutations
